Results published in PMC8058733, “A pain killer without analgesic tolerance designed by co-targeting PSD-95-nNOS interaction and α2-containning GABAARs” (Theranostics, 2021).

Key:
PSD-95-nNOS complex = target: T1, PSD-95-nNOS complex (Rattus norvegicus, UniProt P29476); assay: Co-IP of PSD-95-nNOS complex levels in the spinal dorsal horn after SNL; type: in vivo; settings: SNL rats, ZL006 10 mg/kg, i.v.
T1 construct: dorsal spinal cord tissues (L4 and L5) were lysed in 400 μl RIPA; from tissue; host or cells: rat dorsal spinal cord (L4 and L5), SNL model

[1] = test system: SNL-induced mechanical hyperalgesia; assay: SNL-induced mechanical hyperalgesia, paw withdrawal threshold; type: in vivo, rat; settings: SNL rats, ZL006 0.2 mg/d intrathecal infusion × 11 days
Procedure: (§1) Neuropathic pain was induced by segmental spinal nerve ligation (SNL). Animals were anesthetized with isoflurane. After the loss of righting reflex, the animal was fixed in the prone position. The SNL model was prepared as described previously: a median skin incision with about 3-5 cm length in L4-S2 level of the mouse back was made, the muscles next to the vertebrae till the sixth lumbar protruding were separated, the L5/L6 joint protruding on the right side was exposed and excised, and L6 processus transversus was partially split so that the L4-L6 spinal nerves on the right side were exposed. L5 nerve was gently isolated and tightly ligated with 5-0 silk thread. The wound was closed with 4-0 silk thread suture and covered with iodine solution. After nerve ligation, animals with signs of paw clonus or autotomy were excluded from further experiments.
(§2) Osmotic minipumps (models 1004 for mouse and 2ML4 for rat; Alzet) and intrathecal cannulas (0.61 mm outer diameter and 0.28 mm inner diameter for mouse, 0.99 mm outer diameter and 0.58 mm inner diameter for rat) were filled with a solution of PBS. Cannulas were inserted into the subarachnoid space through the space between the L5 and L6 vertebrae and the tip of the catheter was implanted at the L5 spinal segmental level.
For rats, the threshold for 50% paw withdrawal (50% PWT) response to mechanical stimulus was assessed through a dynamic plantar apparatus (Ugo Basile, Italy). The 50% PWT refers to that the probability of paw withdrawal response to repeated mechanical stimulus is 50%. Rats were placed individually in a plastic cage (17 × 15 × 15 cm) with a wire mesh bottom which allowed full access to the paws. Behavioral accommodation was allowed for 15-20 min until cage exploration and major grooming activities ceased. A maximal cut-off of 50g/50s was set to prevent tissue damage. To record the PWT in response to mechanical stimulus, each rat was measured five times with a 5-min interval, and the mean value was recorded after excluding maximal and minimum values. The experimental procedures were performed in a double-blind manner.

[2] = test system: SNL-induced thermal hyperalgesia; assay: SNL-induced thermal hyperalgesia, paw withdrawal latency (Hargreaves); type: in vivo, rat; settings: SNL rats, ZL006 0.2 mg/d intrathecal infusion × 11 days
Procedure: as §1
Osmotic minipumps (models 1004 for mouse and 2ML4 for rat; Alzet) and intrathecal cannulas (0.61 mm outer diameter and 0.28 mm inner diameter for mouse, 0.99 mm outer diameter and 0.58 mm inner diameter for rat) were filled with a solution of PBS. […]
(§3) Paw withdrawal latency (PWL) response to thermal stimulus was assessed through the Hargreaves test. […] To record the PWL in response to thermal stimulus, each animal was measured five times with a 5-min interval, and the mean value was recorded after excluding maximal and minimum values. […]

[3] = test system: SNL-induced mechanical hyperalgesia; assay: SNL-induced mechanical hyperalgesia, von Frey; type: in vivo, mice; settings: WT and nNOS-/- mice, ZL006 i.v., 20 mg/kg
Procedure: as §1
For mice, the threshold for 50% PWT response to mechanical stimulus was quantified by assessing the paw withdrawal threshold using von Frey filaments (Touch-Test TM Sensory Evaluator, North coast Medical, Inc.). Mice were placed individually in a plastic cage (4.5 × 5 × 11 cm) with a wire mesh bottom which allowed full access to the paws. Behavioral accommodation was allowed for 20-30 min until cage exploration and major grooming activities ceased. Mechanical threshold was measured by applying a von Frey filament to the ventral surface of the right hind paw until a positive sign of pain behavior was elicited. The paradigm for assessing the threshold was as follows. Von Frey filaments with logarithmically incremental stiffness (0.02-2 g) were applied serially to the paw by the up-down method. The filaments were presented, in ascending order of strength, perpendicular to the plantar surface with sufficient force to causes light bending against the paw and held for 4s. A positive response was noted if the paw was sharply withdrawn. Flinching immediately upon removal of the hair was also considered a positive response. The 2-g filament was selected as the upper limit cut-off for testing. If there was no response at 2-g filament, animals were assigned this cut-off value. The pattern of positive and negative withdrawal responses was converted to 50% threshold according to the formula: 50% PWT = 10 log (X) + κδ. X = value (in log unit) of the final von Frey hair used; κ is correction factors based on the pattern of responses from the calibration table; δ = mean difference in log units between stimuli (here, 0.224).

[4] = test system: SNL-induced thermal hyperalgesia; assay: SNL-induced thermal hyperalgesia, paw withdrawal latency; type: in vivo, mice; settings: WT and nNOS-/- mice, ZL006 i.v., 20 mg/kg
Procedure: as §1, with “The wound was closed with 4-0 silk thread suture and covered with iodine solution. After nerve ligation, animals with signs of paw clonus or autotomy were excluded from further experiments.” left out
as §3
(A) Time course of SNL-induced thermal hyperalgesia after treating with ZL006-05 (60 mg/kg, i.g.) in mice. Paw withdrawal latency response to thermal stimulation was detected at 0, 1, 2, 4, 6, 8, 10, 12 and 24 h after drug administration. ( B) Areas under the curve of paw withdrawal latency 0-24 h after treatment calculated from ( A) (F (1,16) = 43.07, ***p < 0.001, two-tailed t-test, n = 9). […]

[5] = test system: laminae I excitatory neurons in the SDH; assay: mIPSCs/mEPSCs recordings from acute spinal slices of chronically treated rats; type: in vivo, rat; settings: SNL rats, ZL006 0.2 mg/d intrathecal × 11 days
Description: as §2
All solutions were bubbled with 95% O2 -5% CO2.
For mPSCs measurements, whole-cell recordings were made from putative excitatory neurons in superficial dorsal horn using low-resistance pipettes (4-8 MΩ). Before mPSCs measurements, excitatory neurons were distinguished from inhibitory neurons by firing pattern analysis according to the established relationship between neuronal firing pattern and its neurotransmitter phenotype, [32]-[34] For mEPSCs measurement, the membrane potential was held at -60 mV. […] Tetrodotoxin (0.5 μM) and bicuculline (20 μM) were added to block action potentials and GABAA receptor-mediated currents respectively. For mIPSCs measurement, the membrane potential was held at -70 mV, microelectrodes were filled with internal pipette solution containing CsCl 140, HEPES 10.0, MgATP 4.0, NaGTP 3.0, EGTA 1.0, MgCl2 1.0, CaCl2 0.3 (in mM). […]. […] Each recording lasts more than 5 min. Data were analyzed using Mini software. Up to 120 events from each neuron were selected at a fixed sampling interval to generate cumulative probability.

neuropathic pain = test system: neuropathic pain; set-up: method as in PMID 32632774; settings: treatment of neuropathic pain, chronic use; cited from earlier work

T1 sequence (P29476 whole entry, one chain of several): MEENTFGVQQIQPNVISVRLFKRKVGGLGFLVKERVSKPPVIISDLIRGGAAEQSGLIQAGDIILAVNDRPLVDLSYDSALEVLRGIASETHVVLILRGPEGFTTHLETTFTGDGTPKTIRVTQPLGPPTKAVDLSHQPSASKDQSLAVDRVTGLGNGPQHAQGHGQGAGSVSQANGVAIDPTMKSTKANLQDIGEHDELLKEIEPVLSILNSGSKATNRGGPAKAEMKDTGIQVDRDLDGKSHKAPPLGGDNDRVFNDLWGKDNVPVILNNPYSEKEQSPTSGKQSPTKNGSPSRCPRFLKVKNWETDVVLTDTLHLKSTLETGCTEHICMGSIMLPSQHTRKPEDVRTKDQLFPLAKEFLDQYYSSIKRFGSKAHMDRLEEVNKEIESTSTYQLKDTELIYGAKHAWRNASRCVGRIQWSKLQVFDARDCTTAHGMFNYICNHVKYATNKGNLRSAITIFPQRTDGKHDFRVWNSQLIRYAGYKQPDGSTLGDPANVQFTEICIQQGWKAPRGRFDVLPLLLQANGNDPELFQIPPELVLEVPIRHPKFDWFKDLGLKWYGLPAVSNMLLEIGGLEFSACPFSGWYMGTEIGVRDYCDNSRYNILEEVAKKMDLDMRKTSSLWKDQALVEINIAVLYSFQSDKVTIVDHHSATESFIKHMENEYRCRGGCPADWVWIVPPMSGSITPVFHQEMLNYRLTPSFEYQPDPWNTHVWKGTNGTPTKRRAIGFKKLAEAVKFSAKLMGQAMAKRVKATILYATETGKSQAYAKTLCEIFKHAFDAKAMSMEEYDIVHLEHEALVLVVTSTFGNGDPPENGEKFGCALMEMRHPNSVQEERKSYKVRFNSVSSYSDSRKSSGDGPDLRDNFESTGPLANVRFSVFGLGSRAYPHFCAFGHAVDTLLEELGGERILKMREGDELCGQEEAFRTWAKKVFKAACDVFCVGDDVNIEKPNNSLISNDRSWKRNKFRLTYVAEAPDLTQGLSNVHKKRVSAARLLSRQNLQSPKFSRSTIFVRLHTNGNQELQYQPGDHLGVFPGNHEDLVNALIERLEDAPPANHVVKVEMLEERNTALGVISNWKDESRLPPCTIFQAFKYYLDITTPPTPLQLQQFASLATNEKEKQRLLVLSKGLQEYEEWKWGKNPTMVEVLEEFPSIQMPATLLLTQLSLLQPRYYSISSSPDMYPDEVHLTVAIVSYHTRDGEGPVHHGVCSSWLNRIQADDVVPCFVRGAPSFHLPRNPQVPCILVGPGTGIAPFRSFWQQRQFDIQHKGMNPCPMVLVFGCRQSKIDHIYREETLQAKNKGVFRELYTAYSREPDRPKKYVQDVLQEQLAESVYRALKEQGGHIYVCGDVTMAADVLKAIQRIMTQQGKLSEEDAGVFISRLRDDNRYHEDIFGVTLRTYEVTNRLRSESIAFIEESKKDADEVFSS

O=C(O)c1ccc(NCc2cc(Cl)cc(Cl)c2O)cc1O [ZL006]
PSD-95-nNOS complex level in the SDH (PSD-95-nNOS complex): reversed the SNL-induced upregulation of PSD-95-nNOS interaction | Antinociceptive effect on mechanical hyperalgesia during chronic use (tolerance) [1]: decreased dramatically at d 7 and d 11, compared to d 1 | Antinociceptive effect on thermal hyperalgesia during chronic use (tolerance) [2]: decreased dramatically at d 7 and d 11, compared to d 1 | Effect on SNL-induced mechanical hyperalgesia [3]: attenuated both mechanical and thermal hyperalgesia markedly in WT but not in nNOS^-/- mice | Effect on SNL-induced thermal hyperalgesia [4]: attenuated both mechanical and thermal hyperalgesia markedly in WT but not in nNOS^-/- mice | mEPSCs [5]: did not affect SNL-induced increase in miniature excitatory postsynaptic currents (mEPSCs) | mIPSCs frequency and amplitude ([5]; vs vehicle): significantly lower than that in vehicle-treated rats | Analgesic tolerance when used chronically (neuropathic pain): cause obvious analgesic tolerance
